Values of other authors as cited in PubChem BioAssay AID1259409 (Chemical Carcinogenesis Research Information System (CCRIS), 2018).

Tested on: rodent chemically induced tumor inhibition, incidence and multiplicity
Experiment: CCRIS tumor inhibitor studies
Conditions: Route [Inhibitor]: ORAL, Species: RAT

Which “tumour outcome (control, treated, inhibition, significance)” value (Carcinogen: 3,2'-DIMETHYL-4-AMINOBIPHENYL, 13394-86-0, Dose [Inhibitor]: 0, 2% IN BASAL DIET BEGINNING POST CARCINOGEN TREATMENT AND CONTINUING FOR 40 WK (STUDY DURATION: 60 WK), Strain/Sex: F344/MALE, Target Tissue: Type of Lesion: SMALL INTESTINE: ADENOMA AND ADENOCARCINOMA, Dose [Carcinogen]: 50 MG/KG 1/2 WK FOR 20 WK TO RATS MAINTAINED ON ETHINYL ESTRADIOL CONTAINING DIET (0.75 PPM) FOR 1 WK CYCLED WITH ETHINY, Promoter: ETHINYL ESTRADIOL, 57-63-6) does the source give for `COc1cc(/C=C/C(=O)O[C@H]2CC[C@]34C[C@]35CC[C@]3(C)[C@@H]([C@H](C)CCC=C(C)C)CC[C@@]3(C)[C@@H]5CC[C@H]4C2(C)C)ccc1O` here?
The value was 2/10 (20%), 3/13 (23%), -15%, not significant.

And the “tumour outcome (control, treated, inhibition, significance)” value (Carcinogen: 3,2'-DIMETHYL-4-AMINOBIPHENYL, 13394-86-0, Dose [Inhibitor]: 0, 2% IN BASAL DIET BEGINNING POST CARCINOGEN TREATMENT AND CONTINUING FOR 40 WK (STUDY DURATION: 60 WK), Strain/Sex: F344/MALE, Target Tissue: Type of Lesion: SUBCUTIS: TUMOR, Dose [Carcinogen]: 50 MG/KG 1/2 WK FOR 20 WK TO RATS MAINTAINED ON ETHINYL ESTRADIOL CONTAINING DIET (0.75 PPM) FOR 1 WK CYCLED WITH ETHINY, Promoter: ETHINYL ESTRADIOL, 57-63-6)?
The value was 1/10 (10%), 0/13 (0%), 100%, not significant.

What about the “tumour outcome (control, treated, inhibition, significance)” value (Carcinogen: 3,2-DIMETHYL-4-AMINOBIPHENYL, 13394-86-0, Dose [Inhibitor]: 0, 2% IN BASAL DIET BEGINNING POST CARCINOGEN TREATMENT AND CONTINUING FOR 40 WK (STUDY DURATION: 60 WK), Strain/Sex: F344/MALE, Target Tissue: Type of Lesion: PREPUTIAL GLAND: ADENOMA AND CARCINOMA, Dose [Carcinogen]: 50 MG/KG 1/2 WK FOR 20 WK TO RATS MAINTAINED ON ETHINYL ESTRADIOL CONTAINING DIET (0.75 PPM) FOR 1 WK CYCLED WITH ETHINY, Promoter: ETHINYL ESTRADIOL, 57-63-6) of the same compound?
The value was 5/10 (50%), 8/13 (62%), -24%, not significant.

And the “tumour outcome (control, treated, inhibition, significance)” value (Carcinogen: 3,2-DIMETHYL-4-AMINOBIPHENYL, 13394-86-0, Dose [Inhibitor]: 0, 2% IN BASAL DIET BEGINNING POST CARCINOGEN TREATMENT AND CONTINUING FOR 40 WK (STUDY DURATION: 60 WK), Strain/Sex: F344/MALE, Target Tissue: Type of Lesion: ZYMBAL GLAND: ADENOMA AND CARCINOMA, Dose [Carcinogen]: 50 MG/KG 1/2 WK FOR 20 WK TO RATS MAINTAINED ON ETHINYL ESTRADIOL CONTAINING DIET (0.75 PPM) FOR 1 WK CYCLED WITH ETHINY, Promoter: ETHINYL ESTRADIOL, 57-63-6)?
The value was 2/10 (20%), 0/13 (0%), 100%, not significant.

And the “tumour outcome (control, treated, inhibition, significance)” value (Carcinogen: 3,2-DIMETHYL-4-AMINOBIPHENYL, 13394-86-0, Dose [Inhibitor]: 0, 200% PPM IN BASAL DIET BEGINNING POST CARCINOGEN TREATMENT AND CONTINUING FOR 40 WK (STUDY DURATION: 60 WK), Strain/Sex: F344/MALE, Target Tissue: Type of Lesion: LARGE INTESTINE: ADENOMA AND ADENOCARCINOMA, Dose [Carcinogen]: 50 MG/KG 1/2 WK FOR 20 WK TO RATS MAINTAINED ON ETHINYL ESTRADIOL CONTAINING DIET (0.75 PPM) FOR 1 WK CYCLED WITH ETHINY, Promoter: ETHINYL ESTRADIOL, 57-63-6)?
The value was 3/10 (30%), 3/13 (23%), 23%, not significant.

And the “tumour outcome (control, treated, inhibition, significance)” value (Carcinogen: 7,12-DIMETHYLBENZ[A]ANTHRACENE [57-97-6], Dose [Inhibitor]: 1% IN DIET FOR 35 WK BEGINNING 1 WK POST LAST CARCINOGEN DOSE (STUDY DURATION: 36 WK), Strain/Sex: SPRAGUE-DAWLEY/FEMALE, Target Tissue: Type of Lesion: MAMMARY GLAND: CARCINOMA, Dose [Carcinogen]: 50 MG/KG BW ONCE (STUDY DURATION: 36 WK), Promoter: NONE)?
Its value is 14/15 (93%), 15/16 (94%), -1%, not significant.

And the “tumour outcome (control, treated, inhibition, significance)” value (Carcinogen: 7,12-DIMETHYLBENZ[A]ANTHRACENE [57-97-6], Dose [Inhibitor]: 1% IN DIET FOR 35 WK BEGINNING 1 WK POST LAST CARCINOGEN DOSE (STUDY DURATION: 36 WK), Strain/Sex: SPRAGUE-DAWLEY/FEMALE, Target Tissue: Type of Lesion: MAMMARY GLAND: FIBROADENOMA, Dose [Carcinogen]: 50 MG/KG BW ONCE (STUDY DURATION: 36 WK), Promoter: NONE)?
Its value is 3/15 (20%), 2/16 (13%), 35%, not significant.

What about the “tumour outcome (control, treated, inhibition, significance)” value (Carcinogen: 7,12-DIMETHYLBENZ[A]ANTHRACENE, 57-97-6, Dose [Inhibitor]: 0, 1% IN DIET FOR 35 WK BEGINNING POST CARCINOGEN DOSE (STUDY DURATION: 36 WK), Strain/Sex: SPRAGUE-DAWLEY/FEMALE, Target Tissue: Type of Lesion: EAR DUCT: TUMOR, Dose [Carcinogen]: 50 MG/KG BW IN CORN OIL ONCE, Promoter: NONE USED) of the same compound?
The value was 5/15 (33%), 7/16 (44%), -33%, not significant.

And the “tumour outcome (control, treated, inhibition, significance)” value (Carcinogen: 7,12-DIMETHYLBENZ[A]ANTHRACENE, 57-97-6, Dose [Inhibitor]: 0, 1% IN DIET FOR 35 WK BEGINNING POST CARCINOGEN DOSE (STUDY DURATION: 36 WK), Strain/Sex: SPRAGUE-DAWLEY/FEMALE, Target Tissue: Type of Lesion: MAMMARY GLAND: ADENOCARCINOMA, Dose [Carcinogen]: 50 MG/KG BW IN CORN OIL ONCE, Promoter: NONE USED)?
Its value is 14/15 (93%), 15/16 (94%), -1%, not significant.

And the “tumour outcome (control, treated, inhibition, significance)” value (Carcinogen: 7,12-DIMETHYLBENZ[A]ANTHRACENE, 57-97-6, Dose [Inhibitor]: 0, 1% IN DIET FOR 35 WK BEGINNING POST CARCINOGEN DOSE (STUDY DURATION: 36 WK), Strain/Sex: SPRAGUE-DAWLEY/FEMALE, Target Tissue: Type of Lesion: MAMMARY GLAND: FIBROADENOMA, Dose [Carcinogen]: 50 MG/KG BW IN CORN OIL ONCE, Promoter: NONE USED)?
The value was 3/15 (20%), 2/16 (13%), 35%, not significant.
